Experiments:
[1] = Inhibition of Coxsackievirus B3 2C protein
[2] = Binding affinity to Coxsackievirus B3 2C protein assessed as dissociation constant
[3] = molecular target: SWI/SNF-related matrix-associated actin-dependent regulator of chromatin subfamily A member 2 (Homo sapiens, UniProt P51531); assay: Inhibition of SMARCA2 (unknown origin)
[4] = molecular target: T1, Bifunctional 3'-5' exonuclease/ATP-dependent helicase WRN (Homo sapiens, UniProt Q14191); assay: Inhibition of N-terminal Hexa-histidine-tagged human recombinant WRN helicase domain (517 to 945 residues) extracted from Baculovirus infected Sf9 cells by fluorescence based analysis
T1 sequence (Q14191 whole entry, the tested form may be a part): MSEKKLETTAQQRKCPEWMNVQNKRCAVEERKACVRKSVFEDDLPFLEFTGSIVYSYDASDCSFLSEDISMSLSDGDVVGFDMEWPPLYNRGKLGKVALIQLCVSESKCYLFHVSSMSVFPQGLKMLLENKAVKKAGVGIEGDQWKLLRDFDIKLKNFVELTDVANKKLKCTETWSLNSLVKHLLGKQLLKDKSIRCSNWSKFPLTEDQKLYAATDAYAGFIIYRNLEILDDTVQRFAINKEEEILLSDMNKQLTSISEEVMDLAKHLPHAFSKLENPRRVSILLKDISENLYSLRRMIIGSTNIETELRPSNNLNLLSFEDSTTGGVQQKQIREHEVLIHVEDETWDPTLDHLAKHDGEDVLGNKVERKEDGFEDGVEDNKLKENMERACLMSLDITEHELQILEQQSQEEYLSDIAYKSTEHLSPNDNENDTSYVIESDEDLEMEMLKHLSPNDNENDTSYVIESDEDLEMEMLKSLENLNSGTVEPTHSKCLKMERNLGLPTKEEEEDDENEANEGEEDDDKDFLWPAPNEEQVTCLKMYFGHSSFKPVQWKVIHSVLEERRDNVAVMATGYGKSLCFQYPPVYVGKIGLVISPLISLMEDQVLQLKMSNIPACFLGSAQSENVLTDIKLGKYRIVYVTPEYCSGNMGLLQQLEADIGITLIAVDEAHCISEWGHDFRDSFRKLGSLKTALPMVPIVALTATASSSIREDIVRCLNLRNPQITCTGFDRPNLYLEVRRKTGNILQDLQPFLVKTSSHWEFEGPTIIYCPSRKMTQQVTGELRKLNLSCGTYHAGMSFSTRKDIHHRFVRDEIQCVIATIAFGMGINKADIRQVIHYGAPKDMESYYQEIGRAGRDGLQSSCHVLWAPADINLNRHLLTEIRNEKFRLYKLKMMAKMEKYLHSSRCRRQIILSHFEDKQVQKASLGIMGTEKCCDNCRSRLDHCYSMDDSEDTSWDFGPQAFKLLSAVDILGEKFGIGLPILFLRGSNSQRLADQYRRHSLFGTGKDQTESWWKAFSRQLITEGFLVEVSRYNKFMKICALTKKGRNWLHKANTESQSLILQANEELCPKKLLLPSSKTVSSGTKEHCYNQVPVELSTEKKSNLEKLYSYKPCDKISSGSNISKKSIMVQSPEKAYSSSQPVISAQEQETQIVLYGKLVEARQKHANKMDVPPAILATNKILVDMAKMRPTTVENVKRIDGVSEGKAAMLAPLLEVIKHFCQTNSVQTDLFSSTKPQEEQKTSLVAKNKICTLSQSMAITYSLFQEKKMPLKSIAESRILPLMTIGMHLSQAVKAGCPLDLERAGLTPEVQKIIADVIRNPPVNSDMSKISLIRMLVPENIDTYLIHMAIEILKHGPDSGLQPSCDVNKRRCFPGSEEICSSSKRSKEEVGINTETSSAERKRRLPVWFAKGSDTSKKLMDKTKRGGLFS

[5] = molecular target: T1, Bifunctional 3'-5' exonuclease/ATP-dependent helicase WRN; assay: Inhibition of N-terminal WRN (unknown origin)
[6] = molecular target: Eukaryotic initiation factor 4A-I (Homo sapiens, UniProt P60842); assay: Inhibition of recombinant full length 6xHis-tagged EIF4A1 (unknown origin) by FP assay
Chain of Eukaryotic initiation factor 4A-I (P60842 whole entry): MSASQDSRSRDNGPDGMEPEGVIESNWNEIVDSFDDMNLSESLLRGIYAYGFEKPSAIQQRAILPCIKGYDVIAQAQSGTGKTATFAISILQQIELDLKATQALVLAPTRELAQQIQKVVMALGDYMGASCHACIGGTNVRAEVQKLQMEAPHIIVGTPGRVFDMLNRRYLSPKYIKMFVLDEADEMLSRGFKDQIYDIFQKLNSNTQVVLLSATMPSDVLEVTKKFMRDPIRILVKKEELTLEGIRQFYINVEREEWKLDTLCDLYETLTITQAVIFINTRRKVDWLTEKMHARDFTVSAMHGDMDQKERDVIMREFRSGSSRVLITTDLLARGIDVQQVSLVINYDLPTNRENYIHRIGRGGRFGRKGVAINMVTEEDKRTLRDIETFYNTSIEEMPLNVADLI

[7] = Inhibition of HSV-1 helicase DNA dependent ATPase activity assessed as reduction in helicase-primase complex; set-up: species or system Human alphaherpesvirus 1

Chain of SWI/SNF-related matrix-associated actin-dependent regulator of chromatin subfamily A member 2 (P51531 whole entry, the tested form may be a part): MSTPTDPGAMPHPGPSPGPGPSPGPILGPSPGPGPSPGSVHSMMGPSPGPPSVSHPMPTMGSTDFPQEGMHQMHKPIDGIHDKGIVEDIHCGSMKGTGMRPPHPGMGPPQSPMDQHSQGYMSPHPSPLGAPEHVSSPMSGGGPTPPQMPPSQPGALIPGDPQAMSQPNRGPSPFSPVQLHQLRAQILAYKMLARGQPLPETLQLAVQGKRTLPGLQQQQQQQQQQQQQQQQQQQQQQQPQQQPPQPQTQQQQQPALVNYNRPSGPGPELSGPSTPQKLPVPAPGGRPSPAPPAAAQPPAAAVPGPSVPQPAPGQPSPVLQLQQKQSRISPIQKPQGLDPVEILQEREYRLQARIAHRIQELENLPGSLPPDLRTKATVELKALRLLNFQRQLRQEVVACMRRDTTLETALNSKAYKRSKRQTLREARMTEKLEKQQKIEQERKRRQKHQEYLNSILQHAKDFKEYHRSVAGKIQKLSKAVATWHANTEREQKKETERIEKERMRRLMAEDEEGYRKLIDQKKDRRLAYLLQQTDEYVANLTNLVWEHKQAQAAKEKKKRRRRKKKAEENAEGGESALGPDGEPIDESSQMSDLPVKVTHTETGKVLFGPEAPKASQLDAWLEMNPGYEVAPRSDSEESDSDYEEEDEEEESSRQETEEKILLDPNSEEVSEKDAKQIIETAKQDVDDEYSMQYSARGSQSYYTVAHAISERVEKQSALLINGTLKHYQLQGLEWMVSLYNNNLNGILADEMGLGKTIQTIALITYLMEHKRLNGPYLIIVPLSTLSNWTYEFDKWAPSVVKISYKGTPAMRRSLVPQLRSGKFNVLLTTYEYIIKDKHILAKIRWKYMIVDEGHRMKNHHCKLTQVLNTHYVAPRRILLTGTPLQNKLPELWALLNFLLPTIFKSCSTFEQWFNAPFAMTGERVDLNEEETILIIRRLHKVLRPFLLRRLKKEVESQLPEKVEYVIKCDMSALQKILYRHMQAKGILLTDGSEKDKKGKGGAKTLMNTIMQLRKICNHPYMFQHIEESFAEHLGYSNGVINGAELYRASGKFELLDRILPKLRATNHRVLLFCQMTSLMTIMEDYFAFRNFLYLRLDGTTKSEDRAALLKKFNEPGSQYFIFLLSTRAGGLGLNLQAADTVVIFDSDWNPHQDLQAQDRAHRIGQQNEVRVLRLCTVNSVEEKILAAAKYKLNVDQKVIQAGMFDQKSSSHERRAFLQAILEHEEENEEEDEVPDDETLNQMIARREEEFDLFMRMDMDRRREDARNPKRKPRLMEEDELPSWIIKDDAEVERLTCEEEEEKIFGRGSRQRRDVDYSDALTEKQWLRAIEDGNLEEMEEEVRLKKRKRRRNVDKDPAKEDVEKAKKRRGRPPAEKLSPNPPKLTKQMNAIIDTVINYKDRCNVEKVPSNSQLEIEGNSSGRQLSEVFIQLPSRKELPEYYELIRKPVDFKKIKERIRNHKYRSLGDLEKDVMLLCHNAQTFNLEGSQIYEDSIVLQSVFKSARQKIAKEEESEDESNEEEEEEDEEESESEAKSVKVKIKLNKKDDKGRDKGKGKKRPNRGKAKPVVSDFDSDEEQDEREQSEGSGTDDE

SMILES: CNCCC(Oc1ccc(C(F)(F)F)cc1)c1ccccc1 (centres undefined) [FLUOXETINE]
- EC50 [1]: ~5000 nM
- Kd [2]: 9500 nM

SMILES: CNCC[C@H](Oc1ccc(C(F)(F)F)cc1)c1ccccc1
- EC50 [1]: 5000 nM

SMILES: O=C(Nc1cc(C(F)F)ns1)Nc1cc(F)ncc1CO
- IC50 [3]: < 5 nM

SMILES: CS(=O)(=O)CC[C@@H](NC(=O)c1cnc(C(F)(F)F)nc1Oc1ccccc1)C1CC1
- IC50 [4]: 140 nM
- IC50 [5]: 140 nM

SMILES: CC(/C=C/C(C)=C/[C@@H]1Cc2nc(cs2)CC[C@@H](N)CC(=O)O[C@@H](C)C/C(C)=C/C=C\C(=O)O1)=C\CN(C)C
- IC50 [6]: 1 nM

SMILES: COC(=O)[C@H]1[C@@H](O)[C@@]2(O)c3c(OC)cc(O[C@@H]4O[C@@H]([C@H](O)CO)CO[C@H]4OC)cc3O[C@@]2(c2ccc(OC)cc2)[C@@H]1c1ccccc1 [SILVESTROL]
- IC50 [6]: 60 nM

SMILES: Cc1cccc(C)c1N(CC(=O)Nc1ccc(-c2ncon2)cc1)C(=O)C1CCS(=O)(=O)CC1
- IC50 [7]: 78 nM

Source: ChEMBL document CHEMBL6153124, “Structural Chemistry of Helicase Inhibition” (J Med Chem, 2025)
